Experimental data published in US6355619B1, “Peptide tumor cell growth inhibitors” (Board of Regents, The University of Texas System, priority 1996, dated 2002).
Read-outs that look alike come from different tables or passages of the source.

Legend:
A375P melanoma cells = assay: Tumor cell growth, A375P; format: cell-based
[1] = 100 μM peptide, 72 hr, trypan blue dye exclusion
Method: The viability of Hs 294T cells after the culture for 72 hr in the presence of Antileukinate. Melanoma cell line Hs 294T was cultured in the presence of various concentrations of Antileukinate for 72 hr. The viability of the cells was measured by means of trypan blue dye exclusion.

[2] = test system: A549 (adenocarcinoma of lung); assay: Growth of A549, cell count; format: cell-based; conditions: A549, 7 days, media replaced every 24 hours
Method: (§1) FIG. 20 The effect of Antileukinate on growth of A549 (adenocarcinoma of lung). A549 cells were plated at a density of 5×10^3 cells in 24-well plate with growth medium. After the cells adhered to the plate, supernatants were aspirated and culture media containing various concentrations of Antileukinate were added to the wells. The media was replaced every 24 hours and the cells were cultured for 7 days. After incubation, cells were detatched with trypsin-EDTA and the cell number was counted using a hemocytometer. Cell number was decreased in a dose-dependent manner and there are significant differences from control at concentrations greater than, or equal to 50 μM of Antileukinate (p<0.05).

Hs 294T = conditions: 16 hr
Method: The cell lines (4×10^5 cells/well) in RPMI-1640 medium containing 10% fetal bovine serum were incubated with 10 μCi of Na2^51CrO4 (DuPont NEN Co.) for 60 min at 37° C. in a 24 well tissue culture plate. The cells were washed 3 times and then incubated in cell culture medium for 30 min at 37° C. to allow spontaneous lysis of marginally viable cells. […] The cells were cultured for 16 hr at 37° C. and then the radioactivity in the supernatants was counted in a gamma radiation spectrometer. Quadriplicate wells received cell culture medium alone or 2% SDS to determine spontaneous and maximum release, respectively. The percentage lysis was calculated by using the following formula: [formula]

WM115 melanoma cells = assay: Tumor cell growth, WM115; format: cell-based
[3] = test system: lung adenocarcinoma cell line NCI-H441; assay: Tumor cell growth, NCI-H441; format: cell-based
[4] = test system: leukotriene B4-stimulated neutrophil enzyme release; assay: β-glucuronidase release from neutrophils stimulated by leukotriene B4; format: cell-based, human; conditions: 100 nM leukotriene B4
Method: (§2) FIG. 8. The Effect of Ac-RRWWCR-NH2 (SEQ ID NO:1) on β-glucuronidase Release. Neutrophils pretreated with cytochalasin B were incubated with 100 nM IL-8 (●), 100 nM fMLP (▪), 100 nM C5a (_) or 100 nM leukotriene B4 ? or without any stimulant (◯) in the presence of increasing concentration of Ac-RRWWCR-NH2 (SEQ ID NO:1) for 30 min at 37° C. β-glucuronidase activity of supernatants were measured using phenolphthalein-glucuronic acid as substrate. Analysis of variance was used for multiple comparison.
(§3) Neutrophil enzyme release was studied by a modification of the method of Goldstein and colleagues (Goldstein et al., 1973). Cytochalasin B (Sigma Chemical Co.) was stored in dimethyl sulfoxide at a concentration of 5 mg/ml and was diluted to a concentration of 50 μg/ml in Hank's Balanced Salt Solution (HBSS) immediately before use. Cytochalasin B, 200 μl, was added to 1 ml of suspension of neutrophils, 6.25×10^6 cells/ml in HBSS, to achieve a final cytochalasin B concentration of […]. The solution was then incubated in 96 well plates at room temperature for 10 min. The stimulant, 100 μl, was added, and this cell suspension was incubated for 30 min at 37° C. The plates were centrifuged and 100 μl of supernatant was removed. […] After 16 hr incubation at 37° C., 200 μl of 0.2 M Glycine in 0.2 M NaCl, pH10.4 was added to each well and OD540 was measured as the enzyme activity.

[5] = test system: DU145 (adenocarcinoma of prostate); assay: Growth of DU145, MTT assay; format: cell-based; conditions: DU145, serum-starved, 24 hours
Method: FIG. 18. The effect of Antileukinate on growth of DU145 (adenocarcinoma of prostate) cell line. Serum-starved DU145 were incubated with the indicated concentrations of Antileukinate for 24 hours. MTT assay was then performed. Cell umber was decreased in a dose-dependent manner and there are significant differences from controls at concentrations greater than, or equal to 100 μM of Antileukinate (p<0.05).

[6] = molecular target: T1, C5a binding to human neutrophils (Homo sapiens, UniProt P21730); assay: Binding of 125I-C5a to human neutrophils; conditions: 100 μM peptide; 0.25 nM 125I-labeled C5a
T1 construct: endogenous in cells; host or cells: human blood neutrophils
T1 sequence (P21730 whole entry): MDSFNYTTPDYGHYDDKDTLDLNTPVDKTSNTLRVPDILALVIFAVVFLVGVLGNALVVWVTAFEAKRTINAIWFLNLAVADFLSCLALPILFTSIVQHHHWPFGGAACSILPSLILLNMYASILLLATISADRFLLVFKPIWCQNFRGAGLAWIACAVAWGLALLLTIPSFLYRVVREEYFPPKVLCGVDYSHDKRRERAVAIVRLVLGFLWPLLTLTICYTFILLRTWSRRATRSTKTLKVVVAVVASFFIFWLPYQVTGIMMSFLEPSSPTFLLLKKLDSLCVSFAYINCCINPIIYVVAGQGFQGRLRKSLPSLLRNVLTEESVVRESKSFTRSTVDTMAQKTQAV
Description: To examine the specificity of Ac-RRWWCR-NH2 (SEQ ID NO:1) on ligand-receptor binding, the inventors tested whether the peptide reduced the binding of human ^125I-C5a or ^3H-leukotriene B4 to human neutrophils.
Recombinant human fifth component of complement (C5a) (Sigma Chemical Co., St. Louis, Mo.) was radioiodinated enzymatically using Enzymobead (Bio Rad, Richmond, Calif.). Tritiated leukotriene B4 was purchased from Du Pont Co., Wilmington, Del. Binding assays for C5a and leukotriene B4 were performed as described for IL-8 binding in Example I, except that the buffers used were PBS containing 1 mM CaCl2, 0.5 mM MgCl2, 0.5% BSA, and HBSS containing 0.1% ovulabumin and 10 mM HEPES (pH7.3), respectively, as previously described (Braunwalder et al., 1992; Sherman et al., 1988). The radioactivity was measured with liquid scintillation counter for the leukotriene B4 assay. The binding of both ligands were saturable and inhibited by the non-labeled agonists in dose dependent manners.

[7] = test system: adenocarcinoma from colon Caco-2; assay: Tumor cell growth, Caco-2; format: cell-based
[8] = test system: NCI-H292 (squamous cell carcinoma of lung); assay: Growth of NCI-H292, cell count; format: cell-based; conditions: NCI-H292, 7 days, media replaced every 24 hour
Method: as §1, with “19.” for “20”, “NCI-H292 (squamous cell carcinoma” for “A549 (adenocarcinoma”, “NCI-H292” for “A549”, “hour” for “hours”

[9] = test system: IL-8-stimulated neutrophil enzyme release; assay: β-glucuronidase release from neutrophils stimulated by IL-8; format: cell-based, human
Method: as §2, §3

Substance: RRWWCR [Ac-RRWWCR-NH2]
- effect on cell growth (A375P melanoma cells): suppresses the growth
- viability of Hs 294T cells [1]: greater than 92%
- concentrations with significant difference in cell number from control (p<0.05) [2]: ≥ 50 µM
- % cell lysis (Hs 294T; 1 μM peptide): −4.0 ± 5.2%
- % cell lysis (Hs 294T; 5 μM peptide): −3.2 ± 7.2%
- % cell lysis (Hs 294T; 20 μM peptide): −1.6 ± 3.7%
- % cell lysis (Hs 294T; 100 μM peptide): 2.4 ± 7.9%
- effect on cell growth (WM115 melanoma cells): suppresses the growth
- effect on cell growth [3]: inhibits growth
- effect on enzyme release stimulated by leukotriene B4 [4]: did not affect the enzyme release
- concentrations with significant difference in cell number from controls (p<0.05) [5]: ≥ 100 µM
- effect on binding of C5a to neutrophils [6]: did not affect the binding
- effect on cell growth [7]: inhibits growth
- concentrations with significant difference in cell number from control (p<0.05) [8]: ≥ 50 µM
- EC50 ([9]; read-out: EC50, inhibition of enzyme release from neutrophils stimulated by IL-8): 0.8 µM
- peptide concentration inhibiting β-glucuronidase release ([9]; stimulated by 100 nM IL-8): 2 µM
